Here are results for one molecule from paper PMC10604720, “Unraveling the Mechanism of Epichaperome Modulation by Zelavespib: Biochemical Insights on Target Occupancy and Extended Residence Time at the Site of Action” (Biomedicines, 2023).

This assay has as its system epichaperome. The experiment in a line: Target occupancy by zelavespib using tracer [131I]-PU-AD and gamma counting in MDA-MB-468 tumors. It counts as in vivo, mouse. The note with it: for target occupancy: MDA-MB-468 tumor, 50 mg/kg; for target occupancy, accounting for background signal: background radioactivity of normal tissues (heart) subtracted. On the procedure: MDA-MB-468 (RRID:CVCL_0419) tumor xenografts were established on the forelimbs of female athymic nude mice (Hsd:Athymic Nude-Foxn1^nu; Envigo; 5 weeks old; RRID:MGI:5652489) by subcutaneous (s.c.) injection of 7 × 10^6 cells in a 300 µL cell suspension of a 1:1 v/v mixture of PBS with reconstituted basement membrane (BD Matrigel^TM, Collaborative Biomedical Products Inc., Bedford, MA, USA). Tumor progression was monitored using vernier calipers. For biodistribution studies, female athymic nude mice with MDA-MB-468 tumor xenografts (~200–300 mm^3) on the forelimbs were injected intravenously in the tail vein with zelavespib (50 mg/kg (PU-H71.HCl formulated in 10 mM Phosphate Buffer, pH = ~6.4)) at different time points (0 (co-injection), 6, 24, and 48 h) prior to tracer administration. At designated time points post-drug administration, mice were injected intravenously in the tail vein with 0.93–1.1 MBq (25–50 µCi) of [^131I]-PU-AD in 200 µL of 5% ethanol in saline. The activity in the syringe before and after administration was assayed in a dose calibrator (CRC-15R; Capintec, Florham Park, NJ, USA) to determine by difference the actual activity administered to each animal. Animals were euthanized by CO2 asphyxiation at 24 h post-administration of the radiolabeled [^131I]-PU-AD tracer, and organs, including tumor(s), were harvested and weighed. ^131I was measured in a 2480 WIZARD automatic gamma counter (PerkinElmer, Waltham, MA, USA) using a 260–430 keV energy window. Count data were background- and decay-corrected to the time of injection, and the percent injected dose per gram (%ID/g) for each tissue sample was calculated using a measured ^131I calibration factor to convert count rate to activity and the activity was normalized to the activity injected and the weighed mass of the sample to yield the activity concentration in %ID/g.
The drug could be trapped in non-tumor areas (i.e., stroma or necrotic tissue) or be intracellular but not target-bound. To test this notion and determine the percentile target occupied by each of these intratumoral concentrations of zelavespib, we performed studies in which tracer amounts (that is, non-pharmacologically perturbing amounts) of the radiolabeled epichaperome ligand [^131I]-PU-AD (~6 ng/g which is ~1/10,000 of the therapeutic zelavespib amount) were administered to mice intravenously 24 h prior to tumor zelavespib measurements (Figure 2a). The ^131I isotope has a half-life of 8 days, making it suitable for measurements of drugs with an extended tumor retention profile, such as that observed for zelavespib. It emits γ radiation and β particles; thus, γ-counting can be applied to detect and quantify the radioactive signal in tumors and tissues upon mouse sacrifice. Because both zelavespib and [^131I]-PU-AD bind to the same target, the epichaperome, the more zelavespib that is present in the tumor and is target-bound, the lower the radioactivity signal is in the tumor.
Figure 3 Relationship between molar concentration and target engagement in MDA-MB-468 tumor-bearing mice. (a) Tumor molar concentrations of zelavespib experimentally determined by LC–MS/MS upon administration of single-dose 50 mg/kg zelavespib and sacrificing the mice at 30 h, 48 h, and 72 h post-zelavespib administration (n = 5 mice per time-point). Data are presented as means ± s.e.m., n = 5, one-way ANOVA with Dunnett’s post hoc. Controls: PU-24h, mice were injected 50 mg/kg zelavespib, and tumor concentrations of the drug were determined at 24 h post-injection using LC–MS/MS. Vehicle, mice were injected vehicle only. (b) Target engagement by zelavespib was determined by co-injection of zelavespib with a trace amount of [^131I]-PU-AD. Zelavespib was administered 6, 24, and 48 h prior to [^131I]-PU-AD. […]

`CC(C)NCCCn1c(Sc2cc3c(cc2I)OCO3)nc2c(N)ncnc21` [zelavespib]: the target occupancy is 38.8% (30 h post single 50 mg/kg i.v.) and 24.9% (48 h post single 50 mg/kg i.v.). The “target occupancy, accounting for background signal” value was 41.5% (30 h post single 50 mg/kg i.v.), 22.4% (48 h post single 50 mg/kg i.v.) and 3.5% (72 h post single 50 mg/kg i.v.). Besides, the “remaining intratumoral zelavespib that is target-bound” value (72 h post-injection) is recorded as “about 50%”.
